The text below walks through data of PubChem BioAssay AID2305 (GlaxoSmithKline (GSK), 2010).

Each structure is given as a SMILES string. Several values for one entry are separate records, joined by “and”; a condition that tells them apart may be missing. Identical values can stand only once.

In this test the test system is P. falciparum 3D7 growth, pLDH absorbance. Kind of test: P. falciparum 3D7 growth inhibition, dose response, strain 3D7 (AID 2305).

As to `C=CCN1Cc2c(O)cccc2C(c2ccc(O)c(O)c2)C1` (configuration not stated), the IC50 (commonly the midpoint of a concentration-inhibition curve) was determined as 0.67 µM.
`O=C(Nc1ccc(-c2cccc(-c3nc4ccc(C(F)(F)F)cc4[nH]3)c2)cc1)c1ccoc1` yielded an IC50 of 0.83 µM.
The value for `O=C(Nc1cccc(CN2CCCN(Cc3ncc[nH]3)CC2)c1)c1ccc(Cl)c(Cl)c1` was 0.8 µM; that for `N=C(N)CCN(Cc1ccc(Cl)cc1)c1ccc(Cl)cc1` was 1.06 µM; that for `COc1cccc2c(NN=Cc3ccccc3Cl)cc(C)nc12` was 0.21 µM.
Take `CCCN(CCC)C(C)CCC(C)Nc1c2ccc(Cl)cc2nc2ccc(OC)cc12` (configuration not stated): the IC50 came to 0.07 µM.
Compound `OC(c1ccc(Cl)cc1)(c1ccc(Cl)cc1)C(c1ccc(Cl)cc1)n1ccnc1` (configuration not stated) showed an IC50 of 0.86 µM.
The compound `COc1ccccc1C1CCN(C2CCC(NC(=O)/C=C/c3cc(F)c(F)cc3F)CC2)CC1` (configuration not stated) registered a concentration for half-maximal inhibition (IC50) of 1.6 µM.
To `CCCCOc1c(CCC)cc(Cc2cnc(N)nc2N)cc1CCC` belongs 0.63 µM; to `CC(C)N1CCC(NC(=O)N2CCCN(c3ncnc4cc(-c5ccc(Cl)cc5)sc34)CC2)CC1`, 1.94 µM.
To `CCOc1ccc2c(NN=Cc3cccc([N+](=O)[O-])c3)cc(C)nc2c1` belongs 0.22 µM.
Compound `COc1cc2c(cc1C(F)(F)F)N(C(=O)Nc1cccc(-c3ccc(CN(C)C)cc3)c1)CC2` showed an IC50 of 0.71 µM.
The value for `Cn1ccc(C(=O)Nc2ccc3c(c2)CN(Cc2ccc(N4CCCC4)o2)CCC3)n1` was 1.31 µM.
The compound `CCN(CC)CCNc1ccnc2ccc3ccccc3c12` had an IC50 of 0.22 µM. This IC50 lies about 6-fold lower than the previous one.
The value for `COc1ccc(C(=O)[C@H]2C[C@@H]2CN2CC=C(c3c[nH]c4ccc(OC)nc34)CC2)cc1` was 0.48 µM; that for `CCOC(=O)N[C@@H]1CN[C@@H](C#Cc2cc3c(Nc4ccc(OCc5cccc(F)c5)c(Cl)c4)ncnc3s2)C1` was 1.08 µM; that for `O=C(NCCNc1ccnc2cc(Cl)ccc12)c1ccccc1F` was 0.66 µM.
Compound `Cc1cc(N2CCCC2)nc(Nc2ccc(NC(=O)C(C)(C)C)cc2)n1` showed an IC50 of 1.07 µM.
`CCc1cn(C)c2c(N3CCCC3=O)cc(C(=O)N[C@@H](Cc3ccccc3)[C@H](O)CNC(C)(C)c3cccc(OC)c3)cc12` returned an IC50 of 0.04 µM. Against the preceding compound, the IC50 is about 27-fold lower.
In the case of `Cc1n[nH]c(C)c1C1CCN(CC2CCC(NC(=O)/C=C/c3ccc(Cl)c(Cl)c3)CC2)CC1` (configuration not stated), the IC50 was found to be 0.73 µM. Compared with the last compound, the IC50 is about 18-fold higher.
The value for `Cc1cccc2[nH]c(-c3ccc(-c4ccc(C(=O)NCCN5CCCC5)cc4)cc3)nc12` was 0.52 µM; that for `CO/C(=C\C=C\c1cc2cc(Cl)c(Cl)cc2[nH]1)C(=O)NC1CCN(CCNc2ccccc2)CC1` was 0.26 µM.
The value for `COc1ccc(NC(=O)CCNc2cc(C)nc(Nc3ccccc3)n2)cc1` was 1.1 µM.
In the case of `Cc1cc(C)cc(OCC(O)CN(Cc2cc(Cl)cc(Cl)c2)C(=O)Nc2ccc([N+](=O)[O-])cc2)c1` (configuration not stated), the IC50 was found to be 0.8 µM.
The value for `Cc1ccc(OCC2CCN(c3ncc(C(=O)NC4CC4)cc3Cl)CC2)cc1` was 1.09 µM; that for `Cc1cc(CN2CCC(C(=O)Nc3ccc(-c4nc5ccccc5[nH]4)cc3)CC2)oc1C` was 1.45 µM.
For the compound `CC(=O)c1ccc(O)c(CC(O)CO)c1` (configuration not stated), the IC50 turned out to be 0.72 µM.
To `NC1CCN(CCc2ccc(NS(=O)(=O)c3cccc4ccccc34)cc2)CC1` belongs 1.7 µM; to `COc1ccc2nc(C)cc(NN=Cc3cccc(F)c3)c2c1`, 0.29 µM.
To `O=C(NC1CCC(CN2CCC(c3c[nH]c4ccccc34)CC2)CC1)c1[nH]c(=O)[nH]c(=O)c1F` (configuration not stated) belongs 0.8 µM; to `Cc1nc2c(c(O)c1Cl)-c1ccc(Oc3cccc(C(F)(F)F)c3)cc1C2=O`, 0.04 µM.
In turn, `O=S(=O)(Nc1ccc(CCN2CCC(N3CCCCC3)CC2)cc1)c1ccccc1C(F)(F)F` returned an IC50 of 1.02 µM.
To `O=C(Nc1cc(C(F)(F)F)ccc1N1CCOCC1)C(Cl)(Cl)Cl` belongs 0.37 µM; to `CC(Nc1nc(Nc2ccc(F)cc2)nc(SCC(N)=O)n1)c1ccccc1` (configuration not stated), 0.5 µM; to `O=C(c1cccc(Cl)c1)N1CCN(c2ccc([N+](=O)[O-])c(NC3CC3)c2)CC1`, 0.87 µM.
In turn, `CO/C(=C\C=C\c1cc2cc(Cl)c(Cl)cc2[nH]1)C(=O)NCCCN1CCN(c2cccc(OCC(=O)Nc3ccccc3)c2)CC1` had an IC50 of 0.5 µM.
To `CC(=O)Nc1nc(C(=O)Nc2cccc(-c3ccc(-c4nc5ccccc5[nH]4)cc3)c2)cs1` belongs 0.42 µM; to `O=[N+]([O-])c1ccc(Oc2c(Cl)cc(S(=O)(=O)N3CCC(CN4CCC(c5c[nH]c6ccccc56)CC4)CC3)cc2Cl)c(Cl)c1`, 1 µM.
To `COc1cccc(-c2nn(C)c3sc(C(=O)NCCN(C)Cc4ccccc4)cc23)c1` belongs 0.81 µM; to `CC[C@H](C)CNC(=O)c1cncc(-c2ccc(CNCC3CNCCCO3)cc2)c1` (some centres not stated), 1.02 µM.
To `CC(=Nc1ccc(Cl)c(Cl)c1)N(C)C` belongs 0.54 µM.
As for `COc1ccc(-n2nc(C)c3c2NC(=O)CC3c2ccccc2OCc2ccc(F)cc2)cc1` (configuration not stated), the IC50 stood at 0.85 µM. Compared with the last compound, the IC50 is about 1.6-fold higher.
The value for `CN(C)Cc1cccc(-c2cc3c(-c4cnn(C)c4)c(Cl)cnc3[nH]2)c1` was 0.91 µM.
The value for `O=C(NC1CCC(CN2CCC(c3c[nH]c4ccccc34)CC2)CC1)c1cc(-c2cccc(Cl)c2)n(-c2ccc(Cl)cc2Cl)n1` (configuration not stated) was 1.08 µM; that for `CC(C)NCc1cccc(-c2ccc(NC(=O)c3cccc(C#N)c3)cc2)c1` was 0.32 µM.
On to `CC(=O)N1N=C(c2ccccc2)Sc2c1nc(-c1ccc(Cl)cc1)n2C(C)=O`, for which the IC50 was 0.99 µM.
In the case of `COc1ccc2ccccc2c1C=NNc1ccnc2cc(Cl)ccc12`, the IC50 came to 0.61 µM.
As to `Cn1c(/C=C/C(=O)NC2CCC(CCN3CCc4ccc(C#N)cc4CC3)CC2)cc2ccccc21` (configuration not stated), the concentration for half-maximal inhibition (IC50) was determined as 0.73 µM.
The value for `Cc1cc(C(=O)Nc2ccc3c(c2)CCN3C2CCN(Cc3ccc(O)cc3)C2)no1` (configuration not stated) was 0.77 µM.
The value for `CC1(C)CCCN(C(=O)Cc2ccc3c(c2)CCCC3)C1CN1CC=CC1` (configuration not stated) was 0.72 µM; that for `Cc1ccc2[nH]c(C)c(Br)c(=O)c2c1` was 0.81 µM.
To `N#Cc1ccc2c(c1)CN(CCC1CCC(NC(=O)/C=C/c3c[nH]c4ccccc34)CC1)CC2` (configuration not stated) belongs 0.99 µM and 0.9 µM.
`CO/C(=C\C=C\c1cc2cc(Cl)c(Cl)cc2[nH]1)C(=O)NCCCN1CCN(C2CCCCC2)CC1` registered an IC50 of 1.01 µM. In other words, the single-digit micromolar range.
The value for `COc1cccc(-c2csc(C(=O)NCC3CCN(Cc4ccc(C(C)C)cc4)C3)c2)c1` (configuration not stated) was 1.39 µM; that for `O=S(=O)(NCCN1CCCC1)c1cccc(-c2ccc(CNCc3ccsc3)cc2)c1` was 0.8 µM.
Consider `Cc1ccc(Cl)c2sc(N3CCN(C(=O)c4ccc([N+](=O)[O-])o4)CC3)nc12`, for which the concentration for half-maximal inhibition (IC50) was found to be 0.32 µM.
Take `CC(C)c1ccc(CN(C)CCCCNC(=O)c2ccc(NC(=O)c3ccc(Cl)cc3)cc2)cc1`: the IC50 amounted to 0.99 µM. Compared with the last compound, the IC50 is about 3.1-fold higher.
To `CN(CCN(C)CC(O)c1ccc(Cl)c(Cl)c1)CC(O)c1ccc(Cl)c(Cl)c1` (configuration not stated) belongs 1.1 µM; to `CN(C)C(=O)CC(=O)NCc1c(Cl)cccc1Cl`, 0.2 µM.
The value for `COc1ccc(NC(=O)c2ccc(-c3ccc(-c4cccnc4)cc3)c(C)c2)cc1OCCN(C)C` was 0.2 µM; that for `COc1ccc2nc(C)cc(N/N=C/C=C/c3ccccc3)c2c1` was 0.7 µM.
Take `C[C@H](Cc1ccc(OCCCCCCOc2ccccc2)cc1)NC[C@H](O)c1cccc(Cl)c1`: the IC50 was 0.07 µM.
The value for `NC1=Nc2ccc(Cl)cc2C1(O)c1ccccc1` (configuration not stated) was 0.88 µM; that for `N#Cc1ccc(-c2ccc(C(=O)NCCCCN3CCC(n4cnc5ccccc54)CC3)cc2)cc1` was 0.91 µM; that for `COC(=O)c1cccc(CNCc2ccc(-c3ccc(-c4nc5ccc(C(F)(F)F)cc5[nH]4)cc3)cc2)c1` was 0.3 µM.
The compound `CC(CCNc1c2ccccc2nc2ccccc12)N1CCN(C)CC1` (configuration not stated) had an IC50 of 0.8 µM.
To `CC1CN(Cc2cccc(F)c2)CCN1c1ccc(NC(=O)c2ccc(F)cc2)cc1` (configuration not stated) belongs 0.58 µM.
Turning to `Cc1ccc2[nH]cc(C3CCN(CC4CCC(NC(=O)/C=C/c5ccc(Cl)c(Cl)c5)CC4)CC3)c2c1` (configuration not stated), the IC50 was 0.84 µM and 0.55 µM.
As for `COc1ccc(F)cc1-c1ccccc1CNC(=O)c1cnn(-c2ccc([N+](=O)[O-])cc2)c1C(F)(F)F`, the IC50 is 0.6 µM.
The compound `CN(C)CCN(C)Cc1ccc(-c2ccc3c(Nc4ccc(F)cc4Cl)ccnc3c2)o1` yielded an IC50 of 0.12 µM.
The value for `COc1ccc(-n2nc(C(=O)NCCC3=CCCCC3)c3ccccc3c2=O)cc1` was 0.68 µM; that for `COc1ccccc1C1CCN(C2CCC(NC(=O)/C=C/c3cccc(Cl)c3F)CC2)CC1` (configuration not stated) was 1.29 µM; that for `CN1CCN(CCCN(Cc2ccc(-c3ccc(CNCCc4ccccc4)cc3)cc2)C(=O)c2cccs2)CC1` was 1.43 µM.
The value for `COc1ccc2nccc(NN=Cc3ccccc3[N+](=O)[O-])c2c1` was 0.07 µM; that for `COc1cc(C=CC(=O)N2CCC(CN3CCC(c4c[nH]c5ccccc45)CC3)CC2)cc(OC)c1` was 0.8 µM.
The value for `COc1cc(C(=O)N2COCC(CCCN3CCC(N4CCCC4)CC3)(c3ccc(Cl)c(Cl)c3)C2)cc(OC)c1OC` (configuration not stated) was 0.78 µM; that for `CCCNCCc1ccc(NS(=O)(=O)c2cccc(-c3ccc(Cl)cc3)c2)cc1` was 0.97 µM.
As for `Oc1cccc(-c2nc3ccc(C4=N[C@H]5CCCC[C@H]5N4)cc3[nH]2)c1`, the IC50 was found to be 0.59 µM.
To `FC(F)(F)c1ccc2nc(-c3ccc(-c4cccc(CNCC5CCCO5)c4)s3)[nH]c2c1` (configuration not stated) belongs 0.37 µM.
`Cc1cc(O)c2c3c1C(=O)C=C1C3c3c(c(O)cc(O)c3C(=O)C1(C)C)C2=O` (configuration not stated) yielded an IC50 of 1.68 µM.
`c1cn(CCCNc2ncc(-c3ccsc3)c(-c3nccs3)n2)cn1` registered an IC50 of 0.65 µM.
To `Clc1ccc(OC2CCC(Cn3ccnc3)(c3ccc(Cl)cc3Cl)CC2)c(Cl)c1` (configuration not stated) belongs 0.8 µM; to `CCN(CCN(C)C)Cc1ccc(-c2ccc(NS(=O)(=O)c3cccc(Cl)c3)cc2)cc1`, 0.52 µM.
Turning to `Cc1cccc2[nH]c(-c3ccc(-c4cccc(NC(=O)NCc5cccc(F)c5)c4)s3)nc12`, the IC50 worked out at 0.76 µM.
The compound `CCOC(=O)c1cc(=O)c2ccc(OCC#N)cc2o1` came in with an IC50 of 1.03 µM. This IC50 and that of the compound before are within 1.5-fold of each other.
The value for `CCCCCN1CCCC(NS(=O)(=O)c2ccc(C(=O)Nc3cccc(C(F)(F)F)c3)cc2)C1` (configuration not stated) was 0.79 µM; that for `CC(C)(C)OC(=O)NCc1ccc(Nc2nnc(-c3ccc(OCC(=O)NCc4cc(C(F)(F)F)cc(C(F)(F)F)c4)c([N+](=O)[O-])c3)o2)cc1` was 0.46 µM.
